The source of these data is patent EP4722209A1 (Beijing Shenogen Pharma Group, priority 2023, dated 2024).

One data set addresses T1, ERα (Homo sapiens, UniProt P03372).
T1 construct: host or cells: MCF-7
T1 sequence (P03372 1-595): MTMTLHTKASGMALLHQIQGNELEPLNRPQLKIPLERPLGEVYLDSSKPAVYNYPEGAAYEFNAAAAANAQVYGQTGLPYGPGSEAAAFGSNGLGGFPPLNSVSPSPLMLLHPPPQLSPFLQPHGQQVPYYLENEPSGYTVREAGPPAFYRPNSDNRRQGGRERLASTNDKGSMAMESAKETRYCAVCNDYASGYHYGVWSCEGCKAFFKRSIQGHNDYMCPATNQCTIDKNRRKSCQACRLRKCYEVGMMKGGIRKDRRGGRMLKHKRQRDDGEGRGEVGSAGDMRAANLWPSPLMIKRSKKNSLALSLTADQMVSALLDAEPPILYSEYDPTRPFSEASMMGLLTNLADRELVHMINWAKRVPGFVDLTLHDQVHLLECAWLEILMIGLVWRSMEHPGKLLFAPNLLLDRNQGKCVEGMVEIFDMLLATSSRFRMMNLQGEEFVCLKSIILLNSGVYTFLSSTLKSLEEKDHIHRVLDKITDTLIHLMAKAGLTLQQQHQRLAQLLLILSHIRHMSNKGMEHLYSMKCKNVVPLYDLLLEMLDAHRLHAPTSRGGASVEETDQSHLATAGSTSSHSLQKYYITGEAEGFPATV
Description: ER degradation activity in MCF-7 cells (Western blot, grayscale intensity). The following applies: 6 hours treatment, 1 nM to 100 nM, concentration required to degrade 50% of the target protein. The class given is cell-based. In outline:
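MCF-7 cells were treated 24 h after seeding with test compounds at 1 nM to 100 nM final (0.2% DMSO) for 6 h at 37 °C. ERα in lysates (30 µg protein) was detected by Western blot with ECL; degradation was quantified from band grayscale intensity and DC50 derived.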

In the next data set the test system is MCF-7 cells. Description: Inhibition of MCF-7 cell proliferation (CellTiter-Glo cell viability). The class given is cell-based. The following applies: Homo sapiens, MCF7, 144 h, 6 days treatment, 1 pM to 10 µM. The protocol: ERα-positive human breast cancer cells MCF-7 (ATCC, HTB-22) were cultured with EMEM medium (ATCC, catalog number 30-2003) containing 10% fetal bovine serum (Thermo Fisher, catalog number 10099141) and 10 µg/mL bovine insulin in 25 cm^2 or 75 cm^2 plastic tissue culture flasks in a 37 °C incubator with 5% CO2. The cells were passaged 2 to 3 times per week.
MCF-7 cells were seeded in 96-well plate at 3×10^3 cells/well with 90 µL culture medium per well, and cultured in a 37 °C incubator with 95% air and 5% CO2. After 24 hours, the test compounds were added: the compounds were serially diluted 10-fold in DMSO starting from 10 mM (dissolved in DMSO) to prepare gradient stock solutions. A complete culture medium containing 1% DMSO was prepared for further dilution, temporarily named as the "dilution buffer." Working solutions were prepared by diluting each stock solution with 99 times the volume of dilution buffer, that is, by adding 1 µL of the 10 mM stock solution to 99 µL of the dilution buffer and mixing thoroughly. Finally, 10 µL of the working solution was added to the cell-seeded culture plate. The final concentration of DMSO in the cell culture medium was 0.2%, and the final concentration of the test compounds ranged from 1 pM to 10 µM. The cells were then incubated at 37 °C for 3 days. The culture medium was removed and replaced with 90µL per well of fresh medium. According to the above compound dilution method, the test compounds were added again. On the 6th day, the CellTiter Glo luminescent cell viability assay kit (Promag, item number G7573) was added for cell viability measurement.
Cell viability was measured using the CellTiter-Glo assay kit, and the half-maximal growth inhibitory concentration (GI50) of the compounds was calculated using the Prism software.
The GI50 values (i.e., the concentration of the test compounds required to inhibit 50% of the cell proliferation) were calculated and shown in Table 2. A corresponds to a GI50 value below 10 nM, B corresponds to a GI50 value greater than 10 nM and less than 100 nM, and C corresponds to GI50 values greater than 100 nM. Table 2. The GI50 values of exemplary compounds in MCF-7 cells

The test system of data set [1] is MCF-7/ERα Y537S xenografts. The data set can be described thus: Anti-tumor activity in MCF-7 xenografts expressing ERα Y537S mutant. As to conditions: 1, 3 and 10 mpk, daily oral gavage, 17 days. Format: in vivo, female Balb/c nude mice. The source says: (§1) MCF-7/ERα Y537S tumors that had been passaged in mice for more than three but less than ten generations were transplanted as approximately 3×3×3 mm tumor blocks into the subcutaneous right flank of female Balb/c nude mice. When the tumor volume in the tumor-bearing mice reached around 200 mm^3, the mice were randomly divided into four groups according to tumor volume and body weight: vehicle group, 1 mpk group, 3 mpk group, and 10 mpk group, 7 mice in each group. The day of grouping was designated as D0, and daily oral gavage administration began on this day and last for a total of 17 days. The 17th day after administration was designated as Day 17.
(§2) The tumor volume was measured twice weekly using a caliper, and the body weight of the mice was measured using an analytical balance. The length and width of the tumor were measured, and the formula for tumor volume calculation is: Tumor Volume (TV) = 0.5 × length × width× width. The T/C value was calculated based on the tumor volume, where T is the mean relative tumor volume (RTV) of the treated groups, and C is the mean RTV of the vehicle group. The RTV is the ratio of the tumor volume after administration to the tumor volume before administration. The tumor growth inhibition rate (TGITV) (%) = (1 - T/C) × 100%.

Data set [2] in a line: Body weight of MCF-7/ERα Y537S xenograft mice. The class given is in vivo, female Balb/c nude mice. The following applies: 1, 3 and 10 mpk, daily oral gavage, 17 days.
Source text: as §1, §2

Turning to `CC1(C)CC(=C(c2ccc(N3CCC(CN4CCN(c5ccc6c(c5)CN([C@H]5CCC(=O)NC5=O)C6=O)CC4)CC3)nc2)c2ccc3[nH]nc(F)c3c2)CC(C)(C)O1` [Compound 110], at ERα, the DC50 (in general, the concentration at which degradation of the target reaches its halfway point) is under 10 nM. The GI50 (as a rule, the concentration giving 50% growth inhibition) in the data set with MCF-7 cells was under 10 nM. Also, in data set [1], the tumor growth inhibition entry was “dose-dependent tumor growth inhibition”. For the same molecule, the “effect on body weight” value in data set [2] is listed as “no effect”.
Regarding `CC1(C)CC(=C(c2ccc(N3CCC4(CC3)CC(N3CCN(c5ccc6c(c5)CN([C@H]5CCC(=O)NC5=O)C6=O)CC3)C4)nc2)c2ccc3[nH]nc(F)c3c2)CC(C)(C)O1` [Compound 120], the DC50 on ERα was under 10 nM. The same molecule gave a GI50 with MCF-7 cells of under 10 nM. Moreover, the tumor growth inhibition entry in data set [1] is “dose-dependent tumor growth inhibition”. Besides, in data set [2], the “effect on body weight” value is given as “no effect”.
